Source: paper PMC9144936, “New Cu^+2 Complexes with N-Sulfonamide Ligands: Potential Antitumor, Antibacterial, and Antioxidant Agents” (Molecules, 2022)

Experiments:
[1] = test system: Escherichia coli ATCC 10536; assay: Disk diffusion method, E. coli; type: cell-based; settings: complexes 5 µL of 1 mg/mL; 25 µg Amoxicillin, 5 µg Norfloxacin; 24 h, 37 °C
Text: The disk diffusion method was used to determine the antibacterial activity of the C1 and C2 copper complexes on four reference microbial strains, two Gram-positive (Staphylococcus aureus and Bacillus cerreus) and two Gram-negative (Escherichia coli and Pseudomonas aeruginosa) strains. The disk diffusion method was used to determine the antibacterial activity of the C1 and C2 copper complexes. The method was adapted for the purposes of the current study, according to the standards developed by the Clinical and Laboratory Standards Institute. Four reference microbial strains, two Gram-positive (Staphylococcus aureus ATCC […] and Bacillus cerreus ATCC 14579) and two Gram-negative (Escherichia coli ATCC 10536 and Pseudomonas aeruginosa ATCC 27853) strains, were used for in vitro susceptibility testing. These reference microbial strains were obtained from the American Type Culture Collection (ATCC, Manassas, VA, USA). As positive controls, Amoxicillin (Oxoid Ltd., Basingstoke, UK) and Norfloxacin (Sigma-Aldrich) were used. For each of the four species, an initial suspension of bacterial cultures was inoculated on nutrient agar plates (Merck KGaA, Darmstadt, Germany), incubated for 24 h at 37 ± 2 °C and resuspended in a physiological saline buffer to a […] concentration (on a 0.5 McFarland scale), and further inoculated on Muëller Hinton agar plates (Merck KGaA, Darmstadt, Germany). […] After inoculation, the medium surface was dried and 8 wells were radially drilled 1.5 cm from the outer edge, 3 cm apart. From aliquot samples of 1 mg/mL of each copper complex dissolved in DMSO and incorporated in sterile liquid medium, 5 μL was placed in each of the 8 wells and left for 30 min to diffuse into the agar plates. The plates were then incubated for 24 h at 37 ± 2 °C. Then, 25 μg Amoxicillin and 5 μg Norfloxacin served as a positive controls, while DMSO 0.75% was used as a negative control. Readings were conducted by measuring the diameter of the inhibition zone (Halo Zone Test, in mm). The germ sensitivity of the copper complexes was estimated by comparing the diameter of the inhibition area to that generated by the regular antibiotics with known inhibition values. […] All tests were triplicated, and the measured diameters of the inhibition zone were expressed (in mm) as mean ± standard deviation.

[2] = test system: Pseudomonas aeruginosa ATCC 27853; assay: MIC, serial broth microdilution, P. aeruginosa; type: cell-based; settings: 24 h, 37 °C
Description: The values of MIC, defined as the lowest concentration of antimicrobial complex that prevents visible growth of germs, are presented in Table S4 in the Supplementary Material. To quantify the copper complexes effectiveness as antibacterial agents, their minimum inhibitory concentrations (MICs) were determined using the serial broth microdilution method described by Quinn et al. and Markey et al.. The method was adapted for the purposes of the current study, according to the standards developed by the Clinical and Laboratory Standards Institute. The tests were performed on the same Gram-positive and Gram-negative reference microbial strains. Ten successive dilutions of the copper complexes solutions (1/2 to 1/1024) in nutrient broth (Merck KGaA, Darmstadt, Germany) were performed and then were placed in sterile microplates (one each for every copper complex). The microplates were incubated at 37 ± 2 °C for 24 h. Comparisons of the amount of bacterial growth in each well containing copper complexes solutions with the amount of growth in the growth control wells were performed and the maximal dilution for which the tested copper complexes inhibited bacterial growth was determined.

supercoiled pUC18 DNA = assay: DNA cleavage (nuclease activity), agarose gel electrophoresis with H2O2/ascorbic acid; type: biochemical; settings: 37 °C; for effect of sodium azide on the ability to destroy the nucleic acid molecule: complex 10 μM, ascorbic acid/H2O2, 1 h, NaN3 400 mM; for concentration at which the circular shape of DNA appears / concentration at which the linear shape of DNA appears: pUC18, cacodylate buffer 0.1 M pH 6.0, H2O2/ascorbic acid, 1 h
Text: The activity of the complexes as chemical nucleases was studied using supercoiled pUC18 DNA in cacodylate buffer (0.1M, pH 6.0) in the presence of H2O2/ascorbic acid, with a 3.0-fold excess relative to the complex concentration. The efficiency of the complexes was compared with that of both copper sulfate and bis(o-phenanthroline) Cu^+2 complex under the same reaction conditions.
The nuclease activity of the complexes C1 and C2 was studied in the presence of certain inhibiting agents: DMSO, t-butyl alcohol, distamycin, sodium azide, 2,2,6,6-tetramethyl-4-piperidone, superoxide dismutase, and neocuproine, in an attempt to determine the ROS involved in the degradation process of the DNA molecule. We chose a concentration of 10 μM for the complexes and a concentration […] for the reducing agents ascorbic acid/H2O2. The incubation period of the samples was 1 h, at 37 °C. The resulting electropherograms are presented in Figure S8 in the Supplementary Material.
Reactions were performed by mixing 7 μL of cacodylate buffer 0.1 M, pH 6 (cacodylic acid/sodium cacodylate), 6 μL of complex solution (final concentrations: 5, 10, 15, and 20 μM), 1 μL of pUC18 DNA solution (0.25 μg/μL, 750 μM in base pairs), and 6 μL of activating agent solution (H2O2/ascorbic acid) in a 3-fold molar excess relative to the concentration of the complex. The resulting solutions were incubated for 1 h at 37 °C, after which a quench buffer solution (3 μL) consisting of bromophenol blue (0.25%), xylene cyanol (0.25%), and glycerol (30%) was added. The solution was then subjected to electrophoresis on 0.8% agarose gel in 0.5 × TBE buffer (0.045 M Tris, 0.045 M boric acid, and 1 mM EDTA) containing 5 μL/100 mL of a solution of ethidium bromide (10 mg/mL) at 100 V for 2 h. The bands were photographed on a capturing system (Gelprinter Plus TDI).
To test for the presence of reactive oxygen species (ROS) generated during strand scission and for possible complex–DNA interaction sites, various reactive oxygen intermediate scavengers and groove binders were added to the reaction mixtures. The scavengers used were 2,2,6,6-tetramethyl-4-piperidone (0.5 M), dimethylsulfoxide (DMSO) 14 M, t-butyl alcohol (10.5 M), sodium azide (NaN3) (400 mM), and superoxide dismutase (SOD) (15 units). In addition, a chelating agent of copper(I) and neocuproine (36 μM), along with the groove binder distamycin (80 μM) were also assayed. Samples were treated as described above.

Substance | Halo Zone Test (diameter of the inhibition zone) [1] [mm] | MIC [2] [µg/mL] | effect of sodium azide on the ability to destroy the nucleic acid molecule (supercoiled pUC18 DNA) | concentration at which the circular shape of DNA appears (supercoiled pUC18 DNA) [µM] | concentration at which the linear shape of DNA appears (supercoiled pUC18 DNA) [µM]
[Cu(N-(5-Ethyl--[1,3,4]-Thiadiazole-2-yl) Naphtalenesulfonamidate)2(py)2(H2O)] [C2] | 16 ± 0.21 | 0.089 | little effect | 10 | 15
[Cu(N-(5-(4-Methylphenyl)-[1,3,4]-Thiadiazole-2-yl) Naphtalenesulfonamidate)2(H2O)3] [C1] | 14 ± 0.11 | 0.196 | little effect | 15 | 20
